Molecular target: Human recombinant DHX9 protein (Homo sapiens (Human), UniProt Q08211)
Test: DHX9 ATPase assay (ADP-Glo)
Type: biochemical
Settings: for IC50: read-out: DHX9 Biochemical Inflection Point

Chain of Human recombinant DHX9 protein (Q08211 whole entry): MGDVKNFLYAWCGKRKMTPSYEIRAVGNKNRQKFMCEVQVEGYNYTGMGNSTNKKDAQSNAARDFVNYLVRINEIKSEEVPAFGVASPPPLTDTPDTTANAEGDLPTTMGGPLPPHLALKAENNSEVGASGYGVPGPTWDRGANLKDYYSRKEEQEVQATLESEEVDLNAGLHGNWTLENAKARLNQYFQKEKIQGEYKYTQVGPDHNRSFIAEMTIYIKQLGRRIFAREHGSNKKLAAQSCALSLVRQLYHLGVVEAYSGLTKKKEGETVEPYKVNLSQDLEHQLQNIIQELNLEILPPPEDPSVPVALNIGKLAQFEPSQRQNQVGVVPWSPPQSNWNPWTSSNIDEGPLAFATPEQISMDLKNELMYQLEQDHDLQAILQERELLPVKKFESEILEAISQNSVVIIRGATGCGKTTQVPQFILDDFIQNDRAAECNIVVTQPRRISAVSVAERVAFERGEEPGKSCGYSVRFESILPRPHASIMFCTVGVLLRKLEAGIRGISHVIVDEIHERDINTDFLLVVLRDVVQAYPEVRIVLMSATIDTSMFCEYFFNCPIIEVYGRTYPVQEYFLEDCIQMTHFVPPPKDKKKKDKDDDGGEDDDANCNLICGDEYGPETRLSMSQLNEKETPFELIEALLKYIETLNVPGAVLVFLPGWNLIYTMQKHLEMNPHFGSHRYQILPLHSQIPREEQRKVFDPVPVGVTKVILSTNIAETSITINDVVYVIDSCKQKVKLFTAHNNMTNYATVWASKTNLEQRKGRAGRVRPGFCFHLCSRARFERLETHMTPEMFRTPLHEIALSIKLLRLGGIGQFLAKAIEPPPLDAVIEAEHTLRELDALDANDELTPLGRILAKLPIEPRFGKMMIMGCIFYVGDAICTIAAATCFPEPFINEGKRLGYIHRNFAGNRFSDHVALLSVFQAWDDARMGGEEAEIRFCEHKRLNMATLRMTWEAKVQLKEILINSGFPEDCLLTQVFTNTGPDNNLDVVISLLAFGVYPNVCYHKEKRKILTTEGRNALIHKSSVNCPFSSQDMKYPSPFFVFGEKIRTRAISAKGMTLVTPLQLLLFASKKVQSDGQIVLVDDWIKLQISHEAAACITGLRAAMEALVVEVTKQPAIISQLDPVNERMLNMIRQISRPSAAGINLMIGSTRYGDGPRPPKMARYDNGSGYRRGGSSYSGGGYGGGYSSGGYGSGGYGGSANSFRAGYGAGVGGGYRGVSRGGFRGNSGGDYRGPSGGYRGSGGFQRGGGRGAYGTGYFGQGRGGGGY

SMILES | DHX9 Biochemical Max Inhibition | IC50
CS(=O)(=O)Nc1cc(Cl)cc(NC(=O)c2cc(-c3ncccc3OCc3cccnc3)n(CC(F)(F)F)c2)c1 [Example 185] | 80.5% | 4.7 nM
CCOc1cnc(-c2cc(C(=O)Nc3cc(Cl)cc(NS(C)(=O)=O)c3)cn2C)nc1 [Example 172] | 72.4% | 15.9 nM
CCOc1ccc(-n2cc(C(=O)Nc3cc(Cl)cc(NS(C)(=O)=O)c3)cc2C)nc1 [Example 437] | 84.2 | 15.5 nM
CS(=O)(=O)Nc1cc(Cl)cc(NC(=O)c2cc(-c3ccc(N4CCOCC4)cn3)n(CC(F)(F)F)c2)c1 [Example 275] | 75.1% | 76.2 nM
Cc1cc(C(=O)Nc2cc(Cl)cc(NS(C)(=O)=O)c2)cn1-c1ccc(N2CC3(COC3)C2)cn1 [Example 276] | 73.8% | 4.7 nM
CS(=O)(=O)Nc1cc(Cl)cc(NC(=O)c2cnn(C3CCOC3)c2)c1 (stereo not shown) [Example 182] | 73.4% | 181 nM
Cn1cc(C(=O)Nc2cc(Cl)cc(NS(C)(=O)=O)c2)cc1-c1ncc(N2CC(F)C2)cc1F [Example 466] | 82.2 | 11.1 nM
CCn1nc(C(=O)Nc2cc(F)cc(NS(C)(=O)=O)c2)cc1C [Example 119, 1-ethyl-N-(3-fluoro-5-(methylsulfonamido)phenyl)-5-methyl-1H-pyrazole-3-carboxamide] | 82.1% | 1160 nM
Cc1sc(C(=O)Nc2cc(Cl)cc(NS(C)(=O)=O)c2)cc1-c1ncc(C(F)(F)F)cn1 [Example 357] | 91.7% | 85.6 nM
CS(=O)(=O)Nc1cc(Cl)cc(NC(=O)c2cc3ccncc3s2)c1 [Example 230] | 65.9% | 93 nM
Cc1sc(C(=O)Nc2cc(Cl)cc(NS(C)(=O)=O)c2)cc1-c1ncc(N2CCC3(COC3)C2)cc1F [Example 512] | 74.3 | 10.9 nM
CS(=O)(=O)Nc1cc(F)cc(NC(=O)c2cc(-c3ncccc3OCc3ccccc3)cs2)c1 [Example 214] | 75.9% | 88 nM
Cc1cc(C(=O)Nc2cc(Cl)cc(NS(C)(=O)=O)c2)cn1-c1ccc(N2CCC3(CC3)C2)cn1 [Example 522] | 71.8 | 40.8 nM
Cc1cc(C(=O)Nc2cc(Cl)cc(NS(C)(=O)=O)c2)cn1-c1ncccc1OCc1nccs1 [Example 280] | 76.3% | 326 nM
Cn1cc(C(=O)Nc2cc(Cl)cc(NS(C)(=O)=O)c2)cc1-c1ncc(N2CCC(F)(F)CC2)cc1F [Example 469] | 83.4 | 22.5 nM
Cc1sc(C(=O)Nc2cc(Cl)cc(NS(C)(=O)=O)c2)cc1-c1ncc(OC2CN(C)C2)cn1 [Example 609, N-(3-chloro-5-methanesulfonamidophenyl)-5-methyl-4-{5-[(1-methylazetidin-3-yl)oxy]pyrimidin-2-yl}thiophene-2-carboxamide] | 72.7 | 3 nM
Cn1cc(C(=O)Nc2cc(Cl)cc(NS(C)(=O)=O)c2)cc1-c1ccccc1/C=C/c1cncc(F)c1 [Example 727] | 55.3 | 9030 nM
CCS(=O)(=O)Nc1cc(Cl)cc(NC(=O)c2cc(-c3ncc(F)cc3F)n(C)c2)c1 [Example 543] | 60.2 | 48.6 nM
Cc1cc(C(=O)Nc2cc(Cl)cc(NS(C)(=O)=O)c2)cn1-c1ncc(N2CC(F)(F)C2)cn1 [Example 418] | 70.25 | 17 nM
CCS(=O)(=O)Nc1cc(F)cc(NC(=O)c2cc(-c3ccccc3)cs2)c1 [Example 74] | 57.7% | 255 nM
CN1CCN(c2cnc(-n3cc(C(=O)Nc4cc(Cl)cc(NS(C)(=O)=O)c4)cn3)nc2)CC1=O [Example 183] | 67.1% | 20.1 nM
Cc1cc(C(=O)Nc2cc(Cl)cc(NS(C)(=O)=O)c2)cn1-c1ncc(N2CCOC2=O)cn1 [Example 417] | 70.1 | 33.1 nM
CS(=O)(=O)Nc1cc(Cl)cc(NC(=O)c2cc(-c3ncc(F)cn3)n(C3CC3)c2)c1 [Example 712] | 74.2 | 56.2 nM
Cc1sc(C(=O)Nc2cc(Cl)cc(NS(C)(=O)=O)c2)cc1-c1ccc(OC(C)(C)C)cn1 [Example 380] | 68.7% | 33.5 nM
CS(=O)(=O)Nc1cc(Cl)cc(NC(=O)c2cnn(-c3ncccc3OCc3cncnc3)c2)c1 [Example 188] | 66.2% | 18.8 nM
CS(=O)(=O)Nc1cc(Cl)cc(NC(=O)c2cnn(-c3ccccc3COc3cncc(F)c3)c2)c1 [Example 428] | 68.9 | 70.8 nM
CS(=O)(=O)Nc1cc(Cl)cc(NC(=O)c2cc(CN)n(-c3ccccn3)c2)c1 [Example 181] | 57.4% | 9.6 nM
CS(=O)(=O)Nc1cc(Cl)cc(NC(=O)c2cnn([C@H]3CCC[C@H](O)C3)c2)c1 (single isomer, unassigned) [Example 152a] | 63.2% | 138 nM

SMILES | DHX9 Biochemical Max Inhibition | IC50
CS(=O)(=O)Nc1cc(Cl)cc(NC(=O)c2cc(C(=O)N3CCOCC3)n(-c3ccccn3)c2)c1 [Example 731] | 69.1 | 63.5 nM
CCOc1cnc(-c2cc(C(=O)Nc3cc(Cl)cc(NS(C)(=O)=O)c3)sc2C)c(F)c1 [Example 456] | 61.5 | 16.2 nM
Cc1sc(C(=O)Nc2cc(Cl)cc(NS(C)(=O)=O)c2)cc1-c1ncc(F)cc1N1CCC2(CC1)CC2 [Example 507] | 52.9 | 1510 nM
CN1CCC(c2ccc(-n3cc(C(=O)Nc4cc(Cl)cc(NS(C)(=O)=O)c4)cn3)nc2)CC1=O (stereo not shown) [Example 266] | 64.4% | 13.1 nM
CCS(=O)(=O)Nc1cc(Cl)cc(NC(=O)c2cc(-c3ncccn3)c(C)s2)c1 [Example 27] | 68% | 6.4 nM
Cc1cc(C(=O)Nc2cc(Cl)cc(NS(C)(=O)=O)c2)cn1-c1ncc(S(C)(=O)=O)cn1 [Example 656] | 71.3 | 30.7 nM
Cc1sc(C(=O)Nc2cc(Cl)cc(NS(C)(=O)=O)c2)cc1-c1ccccc1 [Example 11] | 62.7% | 123 nM
CS(=O)(=O)Nc1cc(Br)cc(NC(=O)c2cc(-n3cccn3)cs2)c1 [Example 60] | 63% | 7.8 nM
Cc1cc(C(=O)Nc2cc(Cl)cc(NS(C)(=O)=O)c2)cn1-c1ncc(F)cn1 [Example 207] | 70% | 15.2 nM
CS(=O)(=O)Nc1cc(Cl)cc(NC(=O)c2cnn(-c3ncccc3OCc3nccs3)c2)c1 [Example 205] | 71.4% | 22.6 nM
Cc1sc(C(=O)Nc2cc(Cl)cc(NS(C)(=O)=O)c2)cc1-c1ncc(N2CCC3(CC2)CC3(F)F)cc1F [Example 478] | 66.8 | 150 nM
CS(=O)(=O)Nc1cc(Cl)cc(NC(=O)c2cnn([C@H]3CCC[C@@H](O)C3)c2)c1 (single isomer, unassigned) [Example 152b] | 69.9% | 126 nM
Cn1cc(C(=O)Nc2cc(Cl)cc(NS(C)(=O)=O)c2)cc1-c1ncc(N2CCN(C(=O)C3CC3)CC2)cc1F [Example 714] | 68.7 | 5.3 nM
CS(=O)(=O)Nc1cc(Cl)cc(NC(=O)c2c[nH]c(-c3ccccc3)n2)c1 [Example 6] | 52.5% | 91.7 nM
CS(=O)(=O)Nc1cc(Br)cc(NC(=O)c2cnn(-c3ccccc3C=O)c2)c1 [Example 58] | 44.4% | 84.9 nM
Cc1sc(C(=O)Nc2cc(Cl)cc(NS(C)(=O)=O)c2)cc1-c1ncc(N2CCC(F)(F)C2)cn1 [Example 479] | 69.6 | 17.5 nM
CS(=O)(=O)Nc1cc(Cl)cc(NC(=O)c2cnn([C@H]3CCC[C@H]3Oc3ccccc3)c2)c1 (single isomer, unassigned) [Example 259] | 69.2% | 
Cc1sc(C(=O)Nc2cc(Cl)cc(NS(C)(=O)=O)c2)cc1-c1ncc(N2CC(F)(F)C2)cn1 [Example 510] | 83.7 | 8.2 nM
CCOc1cnc(-c2cc(C(=O)Nc3cc(Cl)cc(NS(C)(=O)=O)c3)sc2C)nc1 [Example 335] | 79% | 10.7 nM
CCS(=O)(=O)Nc1cc(Cl)cc(NC(=O)c2cc(-c3ncc(F)cn3)c(C)s2)c1 [Example 344] | 74.1% | 21 nM
Cc1cccnc1-c1ccc(C(=O)Nc2cc(Cl)cc(NS(C)(=O)=O)c2)s1 [Example 386] | 59.2% | 420 nM
Cn1cc(C(=O)Nc2cc(Cl)cc(NS(C)(=O)=O)c2)cc1-c1ccc(N2CCOCC2)cn1 [Example 273] | 71.4% | 6.5 nM
CS(=N)(=O)Nc1cc(Br)cc(NC(=O)c2cc(-c3ccccn3)cs2)c1 (stereo not shown) [Example 121, N-(3-bromo-5-(methylsulfonoamidimidamido)phenyl)-4-(pyridin-2-yl)thiophene-2-carboxamide] | 63.5% | 40.6 nM
Cn1cc(C(=O)Nc2cc(Cl)cc(NS(C)(=O)=O)c2)cc1-c1ncc(N2CCCC2)cn1 [Example 520] | 70.8 | 13.7 nM
CCCS(=O)(=O)Nc1cc(Cl)cc(NC(=O)c2cc(-c3ncccc3C)cs2)c1 [Example 372] | 49.2% | 402 nM
COCc1ccc(-c2cc(C(=O)Nc3cc(Cl)cc(NS(C)(=O)=O)c3)cn2C)nc1 [Example 574] | 80.6 | 7.5 nM
Cn1cc(C(=O)Nc2cc(Cl)cc(NS(C)(=O)=O)c2)cc1-c1ccc(N2CCC2)cn1 [Example 538] | 66.9 | 9.2 nM
